# Measured values taken from patent US9127040B2, “Regulation of sodium channels by PLUNC proteins” (The University of North Carolina at Chapel Hill, priority 2011, dated 2015).
# Ends that are not written are not given here.
# T1: ENaC (Homo sapiens, UniProt P37088+P51168+P51170)
# T1 construct: measured the transepithelial voltage under thin film conditions in human bronchial epithelial cultures; endogenous in cells; host or cells: primary human bronchial epithelial cultures (normal or CF donors)
# T1 sequence (P37088 1-669): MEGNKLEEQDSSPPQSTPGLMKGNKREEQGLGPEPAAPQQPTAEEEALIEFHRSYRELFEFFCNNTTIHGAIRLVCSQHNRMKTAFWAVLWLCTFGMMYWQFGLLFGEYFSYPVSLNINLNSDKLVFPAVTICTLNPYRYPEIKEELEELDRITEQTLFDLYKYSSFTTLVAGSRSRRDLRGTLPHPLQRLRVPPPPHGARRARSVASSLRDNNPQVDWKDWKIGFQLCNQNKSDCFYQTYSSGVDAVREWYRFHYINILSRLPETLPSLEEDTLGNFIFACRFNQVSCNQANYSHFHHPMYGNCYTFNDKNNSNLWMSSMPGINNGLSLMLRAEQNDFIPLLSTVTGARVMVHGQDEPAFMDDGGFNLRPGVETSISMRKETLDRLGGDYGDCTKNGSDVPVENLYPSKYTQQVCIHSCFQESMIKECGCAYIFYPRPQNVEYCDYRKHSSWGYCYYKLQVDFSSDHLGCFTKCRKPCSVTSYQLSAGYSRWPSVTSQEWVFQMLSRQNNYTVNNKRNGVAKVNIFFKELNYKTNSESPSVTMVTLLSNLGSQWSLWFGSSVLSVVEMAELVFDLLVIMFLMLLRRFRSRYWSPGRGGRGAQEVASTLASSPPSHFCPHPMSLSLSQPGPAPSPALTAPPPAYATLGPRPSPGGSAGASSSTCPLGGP
# T1 sequence (P51168 1-640): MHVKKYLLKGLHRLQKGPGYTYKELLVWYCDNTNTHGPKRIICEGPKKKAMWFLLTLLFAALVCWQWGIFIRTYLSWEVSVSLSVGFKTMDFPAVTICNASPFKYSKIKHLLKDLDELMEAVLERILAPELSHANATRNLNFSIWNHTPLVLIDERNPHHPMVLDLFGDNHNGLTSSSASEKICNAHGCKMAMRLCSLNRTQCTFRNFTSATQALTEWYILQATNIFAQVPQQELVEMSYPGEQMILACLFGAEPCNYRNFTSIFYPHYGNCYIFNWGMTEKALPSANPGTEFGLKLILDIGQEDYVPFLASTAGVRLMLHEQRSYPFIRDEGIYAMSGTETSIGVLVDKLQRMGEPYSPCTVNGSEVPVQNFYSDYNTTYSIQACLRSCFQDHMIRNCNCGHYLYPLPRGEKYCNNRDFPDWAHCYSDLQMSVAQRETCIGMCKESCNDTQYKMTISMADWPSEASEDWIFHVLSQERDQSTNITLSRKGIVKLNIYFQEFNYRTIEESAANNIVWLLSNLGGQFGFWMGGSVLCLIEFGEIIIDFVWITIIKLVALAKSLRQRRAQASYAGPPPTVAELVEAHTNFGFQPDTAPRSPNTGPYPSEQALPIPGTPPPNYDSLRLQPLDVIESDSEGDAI
# T1 sequence (P51170 1-649): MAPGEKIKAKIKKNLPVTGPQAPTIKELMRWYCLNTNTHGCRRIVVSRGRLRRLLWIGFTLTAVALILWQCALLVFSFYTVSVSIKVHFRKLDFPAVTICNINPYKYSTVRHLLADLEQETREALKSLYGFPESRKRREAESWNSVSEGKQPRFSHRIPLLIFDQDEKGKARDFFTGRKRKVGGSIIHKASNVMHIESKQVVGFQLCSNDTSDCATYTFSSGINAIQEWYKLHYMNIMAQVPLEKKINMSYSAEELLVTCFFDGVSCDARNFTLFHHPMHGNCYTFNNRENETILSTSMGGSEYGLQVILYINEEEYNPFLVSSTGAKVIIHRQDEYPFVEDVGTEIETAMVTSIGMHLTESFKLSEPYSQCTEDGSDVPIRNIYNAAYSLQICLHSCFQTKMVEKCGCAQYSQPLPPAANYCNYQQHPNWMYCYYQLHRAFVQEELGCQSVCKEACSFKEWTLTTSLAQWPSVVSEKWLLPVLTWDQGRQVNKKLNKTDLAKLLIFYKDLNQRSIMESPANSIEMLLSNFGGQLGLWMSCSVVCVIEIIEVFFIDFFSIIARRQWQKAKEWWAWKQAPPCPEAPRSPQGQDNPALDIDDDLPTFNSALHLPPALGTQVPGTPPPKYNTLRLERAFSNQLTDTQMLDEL
# B1: SPLUNC1: human SPLUNC1 (SEQ ID NO:1), 256 amino acid secreted PLUNC family protein; rSPLUNC1 is the purified V5/6His-tagged recombinant form (protein, listed as Homo sapiens)
# chain: MFQTGGLIVFYGLLAQTMAQFGGLPVPLDQTLPLNVNPALPLSPTGLAGSLTNALSNGLLSGGLLGILENLPLLDILKPGGGTSGGLLGGLLGKVTSVIPGLNNIIDIKVTDPQLLELGLVQSPDGHRLYVTIPLGIKLQVNTPLVGASLLRLAVKLDITAEILAVRDKQERIHLVLGDCTHSPGSLQISLLDGLGPLPIQGLLDSLTGILNKVLPELVQGNVCPLVNEVLRGLDITLVHDIVNMLIHGLQFVIKV
# modifications: V5/6His tag in recombinant form
# notes: rSPLUNC1 is the purified V5/6His-tagged recombinant form
# Columns and labels:
# ENaC [1] = target: T1, ENaC; assay: Thin film amiloride-sensitive transepithelial PD in CF HBECs; format: cell-based; settings: 10 μM S18, over 24 h
# Experimental: A, airway surface liquid (ASL) height with time in CF HBECs measured by XZ confocal microscopy after apical addition of 20 μl Ringer with rhodamine-dextran. ▪=control; ▴=10 μM S18. Both n=6. B, Thin film amiloride-sensitive transepithelial PD measured in the same cultures as A, with microelectrodes positioned in the ASL and serosal bath. Open bars, control, closed bars, S18, n=6. C, Dose response to S18 vs. ASL height in CF primary human bronchial epithelial cultures (HBECs) measured 8 h after S18 addition. D, Bar graph of 8 h ASL height in CF HBECs. Control (open bars), S18 black bars, aprotinin, gray bars. NE, neutrophil elastase. ANS, activated neutrophil supernatant. All n=6. *p<0.05 different to vehicle. †p<0.05 different to aprotinin.
# (§1) A single-barreled potential difference-sensing electrode was placed in the airway surface liquid by micromanipulator and used in conjunction with a macroelectrode in the serosal solution to measure transepithelial voltage using a voltmeter (World Precision Instruments). […] Transepithelial resistance was routinely measured using the EVOM system (WPI) as previously described (Tarran et al., J. Gen. Physiol. 127:591 (2006)).
# ENaC [2] = target: T1, ENaC; assay: Transepithelial electrical resistance in human bronchial epithelial cultures; format: cell-based; settings: 50 ng/ml SPLUNC1 30 min or amiloride 10 min; effects not additive
# Text: as §1, with “([…]” for “(Tarran”
Molecule,amiloride-sensitive PD (ENaC [1]),increase of transepithelial electrical resistance (ENaC [2]) [%]
GGLPVPLDQTLPLNVNPA [S18],reduced the amiloride-sensitive PD,
B1,,~33
